Data reported in publication PMC11467737, “Osteocalcin binds to a GPRC6A Venus fly trap allosteric site to positively modulate GPRC6A signaling” (FASEB BioAdvances, 2024).
Where a chain is given by its changes, count along the chain named. Bridge positions count the residues as written; N and C are the ends. Ends that are not written are not given here.

Experiments:
human GPRC6A isoform 1 = molecular target: T1, human GPRC6A isoform 1 (Homo sapiens, UniProt Q5T6X5); assay: cAMP accumulation in HEK-293 cells transfected with human GPRC6A isoform 1 (wild-type, full length); format: cell-based; conditions: for cAMP accumulation by synthesized human Ocn fragments: fragments at 20 nM, Figure 3C / S5C
T1 construct: expressed in transfected cells; host or cells: HEK-293, pcDNA3-hGPRC6A
T1 sequence (Q5T6X5 19-926): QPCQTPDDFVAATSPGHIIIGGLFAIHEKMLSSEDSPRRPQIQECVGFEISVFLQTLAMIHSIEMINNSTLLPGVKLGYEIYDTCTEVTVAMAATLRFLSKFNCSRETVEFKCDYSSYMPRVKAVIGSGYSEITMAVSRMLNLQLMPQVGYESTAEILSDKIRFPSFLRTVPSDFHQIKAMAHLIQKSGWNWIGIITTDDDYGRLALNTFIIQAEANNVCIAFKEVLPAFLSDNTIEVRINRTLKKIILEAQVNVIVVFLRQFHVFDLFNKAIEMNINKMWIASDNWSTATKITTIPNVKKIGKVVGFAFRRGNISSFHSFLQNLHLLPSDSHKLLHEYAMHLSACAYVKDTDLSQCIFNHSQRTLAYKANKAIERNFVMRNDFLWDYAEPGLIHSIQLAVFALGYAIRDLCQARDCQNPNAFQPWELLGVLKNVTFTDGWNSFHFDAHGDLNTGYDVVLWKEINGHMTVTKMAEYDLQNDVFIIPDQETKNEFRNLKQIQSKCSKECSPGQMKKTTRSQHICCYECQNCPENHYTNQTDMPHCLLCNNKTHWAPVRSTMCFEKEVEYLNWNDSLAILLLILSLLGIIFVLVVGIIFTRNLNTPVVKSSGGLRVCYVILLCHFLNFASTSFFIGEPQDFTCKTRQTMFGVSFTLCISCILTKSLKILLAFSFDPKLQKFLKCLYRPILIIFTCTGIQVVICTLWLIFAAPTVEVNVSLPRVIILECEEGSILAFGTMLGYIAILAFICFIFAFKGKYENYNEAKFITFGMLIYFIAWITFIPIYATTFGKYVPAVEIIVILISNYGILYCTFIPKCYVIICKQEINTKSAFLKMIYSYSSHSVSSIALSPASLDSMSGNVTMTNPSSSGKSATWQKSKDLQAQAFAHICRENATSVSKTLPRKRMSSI
Method: (§1) HEK‐293 transfected with human GPRC6A isoform cDNA plasmids cells (10^5 cells/well)[30] were cultured in 24‐well plates in DMEM supplemented with 10% fetal bovine serum and 1% penicillin/streptomycin (100 U/mL of penicillin and 100 μg/mL of streptomycin) for 48 h followed by 4 h incubation in DMEM/F12 containing 0.1% BSA and 0.5 mM IBMX to achieve quiescence and preventing cAMP degradation. Quiescent cells were treated with vehicle control, various ligands at concentration as indicated for 40 min at 37°C. Then, the reaction was stopped, and the cells lysed with 0.5 mL 0.1 N HCl. cAMP levels were measured by using Cyclic AMP EIA kit (Cayman Chemical; Ann Arbor, MA, USA) following the manufacture's protocol.

K352E hGPRC6A = molecular target: T2, K352E hGPRC6A (Homo sapiens, UniProt Q5T6X5, K352E); assay: cAMP accumulation in HEK-293 cells transfected with K352E hGPRC6A; format: cell-based; conditions: K352E mutant; for cAMP accumulation by Ocn small fragments: fragment at 20 nM, Figure 6C
T2 construct: expressed in transfected cells; host or cells: HEK-293, pcDNA3
T2 sequence (Q5T6X5 19-926 K352E): T1 sequence (Q5T6X5 19-926) with K334E
Method: as §1
In‐vitro mutagenesis by PCR‐mediated recombination QuikChange II XL Site‐Directed Mutagenesis Kit (Agilent) was performed using the cDNA of human GPRC6A cloned in the vector pcDNA3 (Invitrogen) as a template. The primer sets are as follows. K352E.sen: […]; K352E.antisen: […]; H355P.sen: […]; H355P.antisen: […]; K352E/H355P.sen: […]; and K352E/H355P.antisen: […]. All mutants were confirmed by sequencing.

[1] = HEK-293 with pcDNA3-hGPRC6A, 40 min

| Substance | Potency compared to full-length Ocn 1–49, cAMP dose response (human GPRC6A isoform 1; HEK-293 with pcDNA3-hGPRC6A, Figure S5A) | cAMP accumulation by synthesized human Ocn fragments (human GPRC6A isoform 1; [1]) | cAMP accumulation by Ocn small fragments (K352E hGPRC6A) | cAMP accumulation, dose response of full-length Ocn (human GPRC6A isoform 1; WT hGPRC6A, Figure 6A) | Ocn-induced cAMP accumulation, dose response (human GPRC6A isoform 1; isoform 1, Ocn 1.73, 8.65, 17.3, 26.0 nM, 1 mM calcium, 40 min, Figure 2C) | cAMP accumulation, dose response of full-length Ocn, versus wild-type receptor (K352E hGPRC6A; Figure 6A) |
| --- | --- | --- | --- | --- | --- | --- |
| REVCELNPDC (disulfide 4-10 (inferred)) [Ocn 20–29, synthesized human Ocn decapeptide fragment located in the middle of the protein] | greater potency | high activity | no response | – | – | – |
| RFYGPV [Ocn 44–49, synthesized human Ocn C‐terminal hexapeptide] | – | high activity | significantly attenuated | – | – | – |
| osteocalcin (YLYQWLGAPVPYPDPLEPRREVCELNPDCDELADHIGFQEAYRRFYGPV; not fully specified; ends and bridges not checked; UniProt P02818 52-100, looked up) [Ocn 1–49, full human Ocn (49 aa) synthesized by BioMatik; methods also describe decarboxylated Ocn purified from bovine tibial bone, reference compound] | – | – | – | dose‐dependently stimulated | activated GPRC6A isoform 1 in a dose dependent manner | significantly decreased |
